From PubChem BioAssay AID2060491 (Molecular Pharmacology Branch, DTP, NCI, 2025)

Tested on: 857933-349-R-J2-PDC complex spheroids, viability
Test: Anticancer human tumor 857933-349-R-J2-PDC patient-derived colon adenocarcinoma cell line growth inhibition [GQUAD]
Settings: for IC50: curve of first compound; for viability, T/C: stronger effect = lower value; active = viability on the fitted dose curve at most 10% of control; inactive = the rest
In short: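 Viability of tumor cells grown as complex spheroids with endothelial and stromal cells, exposed to drug combinations. Top concentration at or near clinical Cmax (else 10 microM), diluted in half-log increments.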

[1] = second compound 0.0316 µM, first compound 0.0316 µM
[2] = second compound 0.0316 µM, first compound 0.1 µM
[3] = second compound 0.0316 µM, first compound 0.316 µM
[4] = second compound 0.0316 µM, first compound 1 µM
[5] = second compound 0.0316 µM, first compound 3.16 µM
[6] = second compound 0.0316 µM, first compound 10 µM
[7] = second compound 0.1 µM, first compound 0.0316 µM
[8] = second compound 0.1 µM, first compound 0.1 µM
[9] = second compound 0.1 µM, first compound 0.316 µM
[10] = second compound 0.1 µM, first compound 1 µM
[11] = second compound 0.1 µM, first compound 3.16 µM
[12] = second compound 0.1 µM, first compound 10 µM
[13] = second compound 0.316 µM, first compound 0.0316 µM
[14] = second compound 0.316 µM, first compound 0.1 µM
[15] = second compound 0.316 µM, first compound 0.316 µM
[16] = second compound 0.316 µM, first compound 1 µM
[17] = second compound 0.316 µM, first compound 3.16 µM
[18] = second compound 0.316 µM, first compound 10 µM
[19] = second compound 1 µM, first compound 0.0316 µM
[20] = second compound 1 µM, first compound 0.1 µM
[21] = second compound 1 µM, first compound 0.316 µM
[22] = second compound 1 µM, first compound 1 µM
[23] = second compound 1 µM, first compound 3.16 µM
[24] = second compound 1 µM, first compound 10 µM
[25] = second compound 3.16 µM, first compound 0.0316 µM
[26] = second compound 3.16 µM, first compound 0.1 µM
[27] = second compound 3.16 µM, first compound 0.316 µM
[28] = second compound 3.16 µM, first compound 1 µM
[29] = second compound 3.16 µM, first compound 3.16 µM
[30] = second compound 3.16 µM, first compound 10 µM
[31] = second compound 10 µM, first compound 0.0316 µM
[32] = second compound 10 µM, first compound 0.1 µM
[33] = second compound 10 µM, first compound 0.316 µM
[34] = second compound 10 µM, first compound 1 µM
[35] = second compound 10 µM, first compound 3.16 µM
[36] = second compound 10 µM, first compound 10 µM
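Also: spheroids exposed to compounds for one week before readout.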
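For viability, T/C in this document: percent viability relative to vehicle DMSO wells taken as 100%.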

CC1COCCN1c1cc(C2(O)CC3CCC(C2)O3)c2cnn(-c3ccn[nH]3)c2n1 (stereo unspecified) + CN(C)c1ccc(Nc2c3ccc(NC(=O)CCN4CCCC4)cc3nc3cc(NC(=O)CCN4CCCC4)ccc23)cc1
3110 nM: IC50 (second compound 10 µM)
inactive: viability, T/C [1] 104% | viability, T/C [2] 90.6% | viability, T/C [3] 73.8% | viability, T/C [4] 61.5% | viability, T/C [5] 51.4% | viability, T/C [6] 50.7% | viability, T/C [7] 97.8% | viability, T/C [8] 92.4% | viability, T/C [9] 75.6% | viability, T/C [10] 60.2% | viability, T/C [11] 53.8% | viability, T/C [12] 55.4% | viability, T/C [13] 94.1% | viability, T/C [14] 82.5% | viability, T/C [15] 74.2% | viability, T/C [16] 52.7% | viability, T/C [17] 56.9% | viability, T/C [18] 54.1% | viability, T/C [19] 92.8% | viability, T/C [20] 76% | viability, T/C [21] 71% | viability, T/C [22] 54.6% | viability, T/C [23] 62.6% | viability, T/C [24] 50.1% | viability, T/C [25] 88.2% | viability, T/C [26] 71.9% | viability, T/C [27] 75.3% | viability, T/C [28] 55% | viability, T/C [29] 59.4% | viability, T/C [30] 50% | viability, T/C [31] 70.7% | viability, T/C [32] 70.2% | viability, T/C [33] 63.5% | viability, T/C [34] 54.9% | viability, T/C [35] 51.7% | viability, T/C [36] 40.8%
> 10000 nM: IC50 (second compound 0.1 µM) | IC50 (second compound 0.316 µM) | IC50 (second compound 1 µM) | IC50 (second compound 3.16 µM)
9430 nM: IC50 (second compound 0.0316 µM)

O=C(c1cc(Cc2n[nH]c(=O)c3ccccc23)ccc1F)N1CCN(C(=O)C2CC2)CC1 + Cc1cnc(CNC(=O)c2c(=O)c3ccc(N4CCCN(C)CC4)nc3n3c2sc2ccccc23)cn1
> 10000 nM: IC50 (second compound 0.0316 µM) | IC50 (second compound 0.1 µM)
< 31.6 nM: IC50 (second compound 0.316 µM) | IC50 (second compound 1 µM) | IC50 (second compound 3.16 µM) | IC50 (second compound 10 µM)
active: viability, T/C [19] 4.96% | viability, T/C [20] 4.81% | viability, T/C [21] 4.45% | viability, T/C [22] 3.67% | viability, T/C [23] 5.47% | viability, T/C [24] 6.38% | viability, T/C [25] 2.65% | viability, T/C [26] 2.92% | viability, T/C [27] 2.93% | viability, T/C [28] 3.33% | viability, T/C [29] 2.59% | viability, T/C [30] 2.87% | viability, T/C [31] 1.22% | viability, T/C [32] 2.2% | viability, T/C [33] 2.36% | viability, T/C [34] 1.84% | viability, T/C [35] 2.2% | viability, T/C [36] 1.68%
inactive: viability, T/C [1] 101% | viability, T/C [2] 88.6% | viability, T/C [3] 99.9% | viability, T/C [4] 83.7% | viability, T/C [5] 84.8% | viability, T/C [6] 77.8% | viability, T/C [7] 66% | viability, T/C [8] 80.9% | viability, T/C [9] 62% | viability, T/C [10] 58.4% | viability, T/C [11] 68.7% | viability, T/C [12] 72.3% | viability, T/C [13] 29.3% | viability, T/C [14] 31.1% | viability, T/C [15] 26.4% | viability, T/C [16] 31.4% | viability, T/C [17] 34% | viability, T/C [18] 38.4%

Cc1[nH]c2ccccc2c1CCNCc1ccc(/C=C/C(=O)NO)cc1 + Cc1cnc(CNC(=O)c2c(=O)c3ccc(N4CCCN(C)CC4)nc3n3c2sc2ccccc23)cn1
< 0.999 nM: IC50 (second compound 0.316 µM) | IC50 (second compound 1 µM) | IC50 (second compound 3.16 µM) | IC50 (second compound 10 µM)
267 nM: IC50 (second compound 0.0316 µM)
active: viability, T/C (second compound 1 µM, first compound 0.000999 µM) 4.8% | viability, T/C (second compound 1 µM, first compound 0.00316 µM) 4.9% | viability, T/C (second compound 1 µM, first compound 0.00999 µM) 6.18% | viability, T/C [19] 9.89% | viability, T/C (second compound 1 µM, first compound 0.0999 µM) 5.17% | viability, T/C [21] 0.17% | viability, T/C (second compound 3.16 µM, first compound 0.000999 µM) 2.36% | viability, T/C (second compound 3.16 µM, first compound 0.00316 µM) 3.21% | viability, T/C (second compound 3.16 µM, first compound 0.00999 µM) 2.34% | viability, T/C [25] 1.12% | viability, T/C (second compound 3.16 µM, first compound 0.0999 µM) 0.55% | viability, T/C [27] 0.15% | viability, T/C (second compound 10 µM, first compound 0.000999 µM) 0.3% | viability, T/C (second compound 10 µM, first compound 0.00316 µM) 0.24% | viability, T/C (second compound 10 µM, first compound 0.00999 µM) 0.43% | viability, T/C [31] 0.42% | viability, T/C (second compound 10 µM, first compound 0.0999 µM) 0.37% | viability, T/C [33] 0.26%
155 nM: IC50 (second compound 0.1 µM)
inactive: viability, T/C (second compound 0.0316 µM, first compound 0.000999 µM) 91% | viability, T/C (second compound 0.0316 µM, first compound 0.00316 µM) 93.7% | viability, T/C (second compound 0.0316 µM, first compound 0.00999 µM) 106% | viability, T/C [1] 86.5% | viability, T/C (second compound 0.0316 µM, first compound 0.0999 µM) 93.8% | viability, T/C [3] 42.5% | viability, T/C (second compound 0.1 µM, first compound 0.000999 µM) 51.7% | viability, T/C (second compound 0.1 µM, first compound 0.00316 µM) 65.6% | viability, T/C (second compound 0.1 µM, first compound 0.00999 µM) 65.6% | viability, T/C [7] 77% | viability, T/C (second compound 0.1 µM, first compound 0.0999 µM) 75.5% | viability, T/C [9] 22.2% | viability, T/C (second compound 0.316 µM, first compound 0.000999 µM) 20.1% | viability, T/C (second compound 0.316 µM, first compound 0.00316 µM) 27.2% | viability, T/C (second compound 0.316 µM, first compound 0.00999 µM) 28.9% | viability, T/C [13] 47.6% | viability, T/C (second compound 0.316 µM, first compound 0.0999 µM) 37.1% | viability, T/C [15] 3.64%
